Assay results reported in patent US9376425B2, “Heterocyclic compounds as MDM2 inhibitors for the treatment of cancer” (AMGEN INC., priority 2011, dated 2016).

Assays:
[1] = molecular target: T1, human MDM2 (GST-hMDM2 aa 1-188), interaction with biotinylated-p53 (aa 1-83) (Homo sapiens, UniProt Q00987); test: Homogenous Time-Resolved Fluorescence Assay (HTRF1 assay), inhibition of HDM2-p53 interaction; assay type: binding; conditions: 2.5 nM GST-hMDM2, 5 nM biotinylated-p53, 200 mM KF
T1 construct: Amino acid residues 1-188 of human MDM2 were expressed; made in house; host or cells: Escherichia coli
T1 sequence (Q00987 1-188): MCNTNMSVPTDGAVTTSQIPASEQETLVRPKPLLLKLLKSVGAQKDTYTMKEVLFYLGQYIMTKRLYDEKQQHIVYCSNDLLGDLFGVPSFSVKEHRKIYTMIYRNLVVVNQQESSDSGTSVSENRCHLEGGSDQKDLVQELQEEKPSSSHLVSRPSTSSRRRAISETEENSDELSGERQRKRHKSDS
Procedure: Homogenous Time-Resolved Fluorescence Assay (HTRF1 Assay)
Residues 1-83 of human p53 were expressed as an amino-terminal AviTag™-TrxA-6xHis fusion protein (biotinylated p53) in E. coli. Each protein was purified from cell paste by affinity chromatography.
Specifically, 10 uL of GST-hMDM2 was incubated with 10 ul of diluted compound (various concentrations, serially diluted) in 10% DMSO for 20 minutes at room temperature. 20 uL of biotinylated-p53 was added to the GST-hMDM2+ compound mixture, and then incubated at room temperature for 60 min. 10 uL of detection buffer consisting of SA-XLent, anti-GST cryptate antibody and KF was added to GST-hMDM2, biotinylated-p53 and compound reaction and left at room temperature to reach equilibrium for >4 hrs. The final concentration of DMSO in the reaction was 2%. Time-resolved fluorescence readings were measured on a microplate multilabel reader. Percentage of inhibition was calculated relative to nutlin-3.

[2] = molecular target: T2, human MDM2 (GST-hMDM2 1-188), interaction with biotinylated-p53 (1-83) (Homo sapiens, UniProt Q00987); test: improved HTRF assay (HTRF2 assay), inhibition of HDM2-p53 interaction; assay type: binding; conditions: 0.2 nM GST-hMDM2, 0.5 nM biotinylated-p53, 100 mM KF
T2 construct: Amino acid residues 1-188 of human MDM2 were expressed; made in house; host or cells: Escherichia coli
T2 sequence (Q00987 1-188): as above
Summary of the method: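 Time-resolved fluorescence (HTRF) read after >4 h equilibration with SA-XLent/anti-GST cryptate/KF detection reagents. Reaction: compound plus GST-hMDM2 for 20 min at room temperature, then E. coli-expressed biotinylated p53 residues 1-83 for 60 min, 2% DMSO final. Inhibition expressed versus nutlin-3.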

Compound | IC50 [2] [nM] | IC50 [1] [nM]
Cn1c([C@@H]2[C@@H](c3cccc(Cl)c3)O[C@H](CC(=O)O)C(=O)N2CC2CC2)nc2ccccc21.Cn1c([C@H]2[C@H](c3cccc(Cl)c3)O[C@@H](CC(=O)O)C(=O)N2CC2CC2)nc2ccccc21 (mixture of isomers) [Example 6, 2-((2R,5R,6R)-6-(3-Chlorophenyl)-4-(cyclopropylmethyl)-5-(1-methyl-1H-benzo[d]imidazol-2-yl)-3-oxomorpholin-2-yl)acetic acid and 2-((2S,5S,6S)-6-(3-Chlorophenyl)-4-(cyclopropylmethyl)-5-(1-methyl-1H-benzo[d]imidazol-2-yl)-3-oxomorpholin-2-yl)acetic acid] |  | 46700
O=C1[C@@H](Cc2nnn[nH]2)O[C@H](c2cccc(Cl)c2)[C@@H](c2ccc(Cl)cc2)N1CC1CC1.O=C1[C@H](Cc2nnn[nH]2)O[C@H](c2cccc(Cl)c2)[C@@H](c2ccc(Cl)cc2)N1CC1CC1 (mixture of isomers) [Example 50, (2S,5R,6R)-6-(3-Chlorophenyl)-5-(4-chlorophenyl)-4-(cyclopropylmethyl)-2-((tetrazol-5-yl)methyl)morpholin-3-one and (2R,5R,6R)-6-(3-Chlorophenyl)-5-(4-chlorophenyl)-4-(cyclopropylmethyl)-2-((tetrazol-5-yl)methyl)morpholin-3-one] |  | 700
O=C(O)C[C@@H]1O[C@H](c2cccc(Cl)c2)[C@@H](c2nc3ccccc3s2)N(CC2CC2)C1=O (racemic) [Example 3, 2-((2S,5S,6R)-5-(Benzo[d]thiazol-2-yl)-6-(3-chlorophenyl)-4-(cyclopropylmethyl)-3-oxomorpholin-2-yl)acetic acid and 2-((2R,5R,6S)-5-(Benzo[d]thiazol-2-yl)-6-(3-chlorophenyl)-4-(cyclopropylmethyl)-3-oxomorpholin-2-yl)acetic acid] |  | 23500
O=C(O)C[C@H]1O[C@H](c2cccc(Cl)c2)[C@@H](c2nc3ccccc3s2)N(CC2CC2)C1=O (racemic) [Example 4, 2-((2R,5S,6R)-5-(Benzo[d]thiazol-2-yl)-6-(3-chlorophenyl)-4-(cyclopropylmethyl)-3-oxomorpholin-2-yl)acetic acid and 2-((2S,5R,6S)-5-(Benzo[d]thiazol-2-yl)-6-(3-chlorophenyl)-4-(cyclopropylmethyl)-3-oxomorpholin-2-yl)acetic acid] |  | 25000
CC[C@@H](CS(=O)(=O)C(C)(C)C)N1C(=O)[C@@H](CNC(=O)OC(C)(C)C)O[C@H](c2cccc(Cl)c2)[C@H]1c1ccc(Cl)cc1 [Example 377, tert-Butyl (((2R,5R,6R)-4-((S)-1-(tert-utylsulfonyl)butan-2-yl)-6-(3-chlorophenyl)-5-(4-chlorophenyl)-3-oxomorpholin-2-yl)methyl)carbamate and tert-butyl (((2S,5R,6R)-4-((S)-1-(tert-butylsulfonyl)butan-2-yl)-6-(3-chlorophenyl)-5-(4-chlorophenyl)-3-oxomorpholin-2-yl)methyl)carbamate] | 86 | 
CC[C@@H](CS(=O)(=O)C(C)(C)C)N1C(=O)[C@@H](CC#N)O[C@H](c2cccc(Cl)c2)[C@H]1c1ccc(Cl)cc1 [Example 381, 2-((2R,5R,6R)-4-((S)-1-(tert-Butylsulfonyl)butan-2-yl)-6-(3-chlorophenyl)-5-(4-chlorophenyl)-3-oxomorpholin-2-yl)acetonitrile] | 66 | 
CC[C@@H](CS(=O)(=O)C(C)(C)C)N1C(=O)[C@@H](Cc2nnn[nH]2)O[C@H](c2cccc(Cl)c2)[C@H]1c1ccc(Cl)cc1 [Example 382, (2R,5R,6R)-2-((1H-Tetrazol-5-yl)methyl)-4-((S)-1-(tert-butylsulfonyl)butan-2-yl)-6-(3-chlorophenyl)-5-(4-chlorophenyl)morpholin-3-one] | < 1 | 
CC[C@@H](CS(=O)(=O)C(C)(C)C)N1C(=O)[C@H](Cc2nnn[nH]2)O[C@H](c2cccc(Cl)c2)[C@H]1c1ccc(Cl)cc1 [Example 383, (2S,5R,6R)-2-((1H-Tetrazol-5-yl)methyl)-4-((S)-1-(tert-butylsulfonyl)butan-2-yl)-6-(3-chlorophenyl)-5-(4-chlorophenyl)morpholin-3-one] | < 1 | 
(2R,5R,6R)-4-((S)-2-(tert-Butylsulfonyl)-1-cyclopropylethyl)-6-(3-chlorophenyl)-5-(4-chlorophenyl)-2-((3-methyl-1H-1,2,4-triazol-5-yl)methyl)morpholin-3-one and (2S,5R,6R)-4-((S)-2-(tert-butylsulfonyl)-1-cyclopropylethyl)-6-(3-chlorophenyl)-5-(4-chlorophenyl)-2-((3-methyl-1H-1,2,4-triazol-5-yl)methyl)morpholin-3-one [Example 391] | 4 | 
Methyl 2-((2R,5R,6R)-6-(3-chlorophenyl)-5-(4-chlorophenyl)-4-((S)-1-((2-(dimethylamino)ethyl)sulfonyl)butan-2-yl)-3-oxomorpholin-2-yl)acetate and methyl 2-((2S,5R,6R)-6-(3-chlorophenyl)-5-(4-chlorophenyl)-4-((S)-1-((2-(dimethylamino)ethyl)sulfonyl)butan-2-yl)-3-oxomorpholin-2-yl)acetate [Example 246] | 6 | 

Continued, in another order:

IC50 [2] [nM] | Compound | IC50 [1] [nM]
4 | CC(C)(C)S(=O)(=O)[C@H]1CCCC[C@@H]1N1C(=O)[C@@H](CC(=O)O)O[C@H](c2cccc(Cl)c2)[C@H]1c1ccc(Cl)cc1 [Example 249, 2-((2R,5R,6R)-4-((1S,2S)-2-(tert-butylsulfonyl)cyclohexyl)-6-(3-chlorophenyl)-5-(4-chlorophenyl)-3-oxomorpholin-2-yl)acetic acid] | 
51 | Cc1ccc([C@H]2O[C@H](CC(=O)O)C(=O)N([C@H](CS(=O)(=O)C(C)(C)C)C3CC3)[C@@H]2c2ccc(Cl)cc2)cc1Cl [Example 327, 2-((2R,5R,6R)-4-((S)-2-(tert-Butylsulfonyl)-1-cyclopropylethyl)-6-(3-chloro-4-methylphenyl)-5-(4-chlorophenyl)-3-oxomorpholin-2-yl)acetic acid] | 
< 1 | CC[C@@H](CS(=O)(=O)C(C)(C)C)N1C(=O)[C@H](CC(=O)NC#N)O[C@H](c2cccc(Cl)c2)[C@H]1c1ccc(Cl)cc1 [Example 344, 2-((2S,5R,6R)-4-((S)-1-(tert-Butylsulfonyl)butan-2-yl)-6-(3-chlorophenyl)-5-(4-chlorophenyl)-3-oxomorpholin-2-yl)-N-cyanoacetamide] | 
< 1 | CC[C@@H](CS(=O)(=O)C(C)(C)C)N1C(=O)[C@@H](CC(=O)NC#N)O[C@H](c2cccc(Cl)c2)[C@H]1c1ccc(Cl)cc1 [Example 345, 2-((2R,5R,6R)-4-((S)-1-(tert-Butylsulfonyl)butan-2-yl)-6-(3-chlorophenyl)-5-(4-chlorophenyl)-3-oxomorpholin-2-yl)-N-cyanoacetamide] | 
13 | CC(C)(C)S(=O)(=O)C[C@H](C1CC1)N1C(=O)[C@H](Cc2ccno2)O[C@H](c2cccc(Cl)c2)[C@H]1c1ccc(Cl)cc1 [Example 384, (2S,5R,6R)-4-((S)-2-(tert-Butylsulfonyl)-1-cyclopropylethyl)-6-(3-chlorophenyl)-5-(4-chlorophenyl)-2-(isoxazol-5-ylmethyl)morpholin-3-one] | 
29 | Cn1ccnc1C[C@H]1O[C@H](c2cccc(Cl)c2)[C@@H](c2ccc(Cl)cc2)N([C@H](CS(=O)(=O)C(C)(C)C)C2CC2)C1=O [Example 402, (2R,5R,6R)-4-((S)-2-(tert-Butylsulfonyl)-1-cyclopropylethyl)-6-(3-chlorophenyl)-5-(4-chlorophenyl)-2-((1-methyl-1H-imidazol-2-yl)methyl)morpholin-3-one] | 
